Legend:
Adenosinetriphosphatase [1] = biological target: T1, Adenosinetriphosphatase (Gallus gallus, UniProt Q9I8A2); assay: Compound was tested for inhibition of osteoclast vacuolar ATPase derived from chicken medullary bone
Adenosinetriphosphatase [2] = biological target: T1, Adenosinetriphosphatase; assay: Compound was tested for in vitro inhibition of osteoclast vacuolar acid pump; format: functional
[3] = Compound was tested at 9 uM for inhibition of V-ATPase mediated proton transport in membrane vesicles derived from chicken medullary bone

T1 sequence (Q9I8A2 whole entry): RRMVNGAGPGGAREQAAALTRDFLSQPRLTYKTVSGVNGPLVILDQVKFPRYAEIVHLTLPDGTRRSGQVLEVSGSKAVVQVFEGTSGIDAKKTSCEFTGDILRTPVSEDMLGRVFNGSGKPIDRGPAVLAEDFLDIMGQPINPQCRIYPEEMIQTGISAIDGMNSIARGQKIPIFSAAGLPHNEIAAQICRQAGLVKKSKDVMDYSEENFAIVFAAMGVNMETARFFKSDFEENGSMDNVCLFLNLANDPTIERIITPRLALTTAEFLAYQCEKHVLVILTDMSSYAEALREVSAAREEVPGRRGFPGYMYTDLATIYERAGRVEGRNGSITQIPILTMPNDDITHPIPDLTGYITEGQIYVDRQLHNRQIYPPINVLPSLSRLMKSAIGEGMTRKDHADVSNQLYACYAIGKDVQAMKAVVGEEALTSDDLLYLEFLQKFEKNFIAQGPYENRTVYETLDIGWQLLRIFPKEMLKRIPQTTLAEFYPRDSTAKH

## CO/C1=C\C(C)=C\[C@@H](C)[C@@H](O)[C@@H](C)C/C(C)=C/C=C/[C@H](OC)[C@@H]([C@@H](C)[C@@H](O)[C@H](C)[C@@]2(O)C[C@@H](O)[C@H](C)[C@@H](C(C)C)O2)OC1=O [BAFILOMYCIN A1]
Adenosinetriphosphatase [1]
  IC50: 0.03 µM

## CO/C(=C\C=C\c1cc2cc(Cl)c(Cl)cc2[nH]1)C(=O)NC1CC(C)(C)NC(C)(C)C1
Adenosinetriphosphatase [1]
  IC50: 0.049 µM

## CC1(C)CC(NC(=O)c2cccc(CC(=O)Nc3ccc(Cl)c(Cl)c3)c2)CC(C)(C)N1
Adenosinetriphosphatase [2]
  IC50: 4.9 µM

## CC1(C)CC(NC(=O)/C=C/C=C/C(=O)Nc2ccc(Cl)c(Cl)c2)CC(C)(C)N1
Adenosinetriphosphatase [2]
  IC50: 1.5 µM
[3]
  inhibition: 51%
